# Experimental data taken from patent US12310364B2, “Safened compositions comprising pyridine carboxylate herbicides and cloquintocet” (Corteva Agriscience LLC, priority 2018, dated 2025).
# Several values for one entry are separate records, joined by “and”; a condition that tells them apart may be missing. Equal entries are not always repeated.
# Legend:
# Type in all cases: in vivo
# [1] = test system: Triticum aestivum (durum wheat), TRZDU; experiment: Greenhouse postemergence safening trial, visual injury on durum wheat
# Protocol: (§1) Greenhouse Trial Methodology-Evaluation of Postemergence Herbicidal […] in Crops […] When required to ensure good germination and healthy plants, a fungicide treatment and/or other chemical or physical treatment was applied. The plants were grown for 7-36 days (d) in a greenhouse with an approximate 14-hour (h) photoperiod which was maintained at about 23° C. during the day and 22° C. during the night. Nutrients and water were added on a regular basis and supplemental lighting was provided with overhead metal halide 1000-Watt lamps as necessary. The plants were employed for testing when they reached the second or third true leaf stage. Emulsifiable concentrates of each of each pyridine carboxylate herbicide (Compound A or Compound B) were prepared at 100 grams acid equivalent per liter (g ae/L). […] The concentrated stock solutions were further diluted with an aqueous mixture of 1.25% […] or MSO® Concentrate with LECI-TECH® to obtain stock solutions at reduced application rates for each herbicide. Spray solutions of the herbicide combinations (Compound A or Compound B plus safener) were prepared by adding weighed amounts or aliquots of the safener to the stock solutions of Compound A or Compound B to form 12-mL spray solutions in two-way combinations. […] Control plants were sprayed in the same manner with the solvent blank. All herbicide (component a) application rates are given as “g ae/ha” and all safener (component b) application rates are given as “g ai/ha.” The treated plants and control plants were placed in a greenhouse as described above and watered by sub-irrigation to prevent wash-off of the test compounds.
# [2] = test system: Hordeum vulgare (spring barley), HORVS; experiment: Greenhouse postemergence safening trial, visual injury on spring barley
# Protocol: as §1
# [3] = test system: Hordeum vulgare (winter barley), HORVW; experiment: Greenhouse postemergence safening trial, visual injury on winter barley
# Protocol: as §1
# [4] = test system: Sinapis arvensis (wild mustard), SINAR; experiment: Greenhouse postemergence trial, visual injury on wild mustard
# Description: (§2) Greenhouse Trial Methodology—Evaluation of Postemergence Herbicidal Safening in Crops
# (§3) Seeds of the desired test plant species were planted in a 90:10% v/v (volume/volume) mixture of PRO-MIX® BX (Premier Tech Horticulture, Quakertown, PA, USA) and PROFILE® GREENS GRADE™ (Profile Products LLC, Buffalo Grove, IL, USA) planting mixture, which typically has a pH of 5.2 to 6.2 and an organic matter content of at least 50 percent, in plastic pots with a surface area of 103.2 square centimeters (cm^2). When required to ensure good germination and healthy plants, a fungicide treatment and/or other chemical or physical treatment was applied. The plants were grown for 7-36 days (d) in a greenhouse with an approximate 14-hour (h) photoperiod which was maintained at about 23° C. during the day and 22° C. during the night. Nutrients and water were added on a regular basis and supplemental lighting was provided with overhead metal halide 1000-Watt lamps as necessary. The plants were employed for testing when they reached the second or third true leaf stage.
# (§4) Emulsifiable concentrates of each of each pyridine carboxylate herbicide (Compound A or Compound B) were prepared at 100 grams acid equivalent per liter (g ae/L). An aliquot of each emulsifiable concentrate was placed in a 25 mL glass vial and diluted with an aqueous mixture of 1.25% (v/v) ACTIROB® B esterified rapeseed oil (Bayer Crop Science, Research Triangle Park, NC, USA) or MSO® Concentrate with LECI-TECH® methylated soybean oil (Loveland Products, Loveland, CO, USA) to obtain concentrated stock solutions at the highest application rate for each herbicide, based upon a 12 milliliter (mL) application volume at a rate of 187 liters per hectare (L/ha). The concentrated stock solutions were further diluted with an aqueous mixture of 1.25% v/v ACTIROB® B or MSO® Concentrate with LECI-TECH® to obtain stock solutions at reduced application rates for each herbicide. Spray solutions of the herbicide combinations (Compound A or Compound B plus safener) were prepared by adding weighed amounts or aliquots of the safener to the stock solutions of Compound A or Compound B to form 12-mL spray solutions in two-way combinations.
# (§5) The spray solutions were applied to the plant material with an overhead Mandel track sprayer equipped with 8002E nozzles calibrated to deliver 187 L/ha over an application area of 0.503 square meters (m^2) at a spray height of 18 inches (43 centimeters (cm)) above the average plant canopy. Control plants were sprayed in the same manner with the solvent blank. All herbicide (component a) application rates are given as “g ae/ha” and all safener (component b) application rates are given as “g ai/ha.”
# (§6) The treated plants and control plants were placed in a greenhouse as described above and watered by sub-irrigation to prevent wash-off of the test compounds. After 20-22 d, the condition of the test plants as compared with that of the control plants was determined visually and scored on a scale of 0 to 100 percent where 0 corresponds to no injury and 100 corresponds to complete kill.
# [5] = test system: Brassica napus (winter rape), BRSNW; experiment: Greenhouse postemergence trial, visual injury on winter rape
# Protocol: as §1
# maize (ZEAMX) = experiment: Greenhouse postemergence safening trial, visual injury on maize
# Description: as §2, §3, §4, §5, §6
# [6] = test system: wild oat (AVEFA, Avena fatua); experiment: Greenhouse postemergence trial, visual injury on wild oat; conditions: Table 19
# Description: as §2, §3
# as §4, with “combinations. […]” for “combinations.”
# as §6
# [7] = test system: Johnson grass (SORHA, Sorghum halepense); experiment: Greenhouse postemergence trial, visual injury on Johnson grass; conditions: Table 19
# Description: as §2, §3
# as §4, with “combinations. […]” for “combinations.”
# as §6
# [8] = test system: Fagopyrum esculentum (common buckwheat), FAGES; experiment: Greenhouse postemergence trial, visual injury on common buckwheat
# Description: as §2, §3, §4, §5, §6
# [9] = Compound A 40 g/ha alone, Table 14
# [10] = Compound A 20 g/ha alone, Table 15
# [11] = Compound A 40 g/ha alone, Table 16
# [12] = Compound A 20 g/ha alone, Table 19
# [13] = CQC-mexyl 40 g/ha alone, Table 14
# [14] = CQC-mexyl 5 g/ha alone, Table 15
# [15] = CQC-mexyl 10 g/ha alone, Table 15
# [16] = CQC-mexyl 10 g/ha alone, Table 16
# [17] = CQC-mexyl 20 g/ha alone, Table 15
# [18] = CQC-mexyl 20 g/ha alone, Table 16
# [19] = CQC-mexyl 40 g/ha alone, Table 15
# [20] = CQC-mexyl 40 g/ha alone, Table 16
# [21] = CQC-mexyl 80 g/ha alone, Table 16
# [22] = CQC-mexyl 20 g/ha alone, Table 19
# [23] = CQC-mexyl 40 g/ha alone, Table 19
# [24] = CQC-mexyl 80 g/ha alone, Table 19
smiles,measurement,setting,value
"N#CCOC(=O)c1nc(-c2ccc3cc[nH]c3c2F)c(F)c(N)c1Cl [Compound A, cyanomethyl 4-amino-3-chloro-5-fluoro-6-(7-fluoro-1H-indol-6-yl)pyridine-2-carboxylate]","% visual injury, Ob",[1]; [9],45%
same,"% visual injury, Ob",[1]; herbicide alone 40 g/ha,45%
same,"% visual injury, Ob",[2]; [10],20%
same,"% visual injury, Ob",[2]; [9],20%
same,"% visual injury, Ob",[2]; [11],40%
same,"% visual injury, Ob",[3]; [10],15%
same,% visual injury Δ,[3]; [9],0%
same,"% visual injury, Ob",[3]; [9],40%
same,"% visual injury, Ob",[3]; [11],30%
same,"% visual injury, Ob",[3]; herbicide alone 20 g/ha,15%
same,% visual injury Δ,[3]; herbicide alone 40 g/ha,0%
same,"% visual injury, Ob",[3]; herbicide alone 40 g/ha,40% and 30%
same,"% visual injury, Ob",[4]; [11],99%
same,"% visual injury, Ob",[4]; herbicide alone 40 g/ha,99%
same,"% visual injury, Ob",[5]; [10],70%
same,"% visual injury, Ob",[5]; [12],85%
same,"% visual injury, Ob",[5]; herbicide alone 20 g/ha,70% and 95%
same,"% visual injury, Ob",maize (ZEAMX); [12],13%
same,"% visual injury, Ob","maize (ZEAMX); Compound A 40 g/ha alone, Table 17",55%
same,"% visual injury, Ob","maize (ZEAMX); Compound A 40 g/ha alone, Table 18",55%
same,"% visual injury, Ob",[6]; Compound A 20 g/ha alone,0%
same,"% visual injury, Ob",[7]; Compound A 20 g/ha alone,0%
"CCCCCC(C)OC(=O)COc1ccc(Cl)c2cccnc12 (stereo not shown) [CQC-mexyl, cloquintocet-mexyl]","% visual injury, Ob",[1]; [13],0%
same,"% visual injury, Ob",[1]; safener alone 40 g/ha,0%
same,"% visual injury, Ob",[2]; [14],0%
same,"% visual injury, Ob",[2]; [15],0%
same,"% visual injury, Ob",[2]; [16],0%
same,"% visual injury, Ob",[2]; [17],0%
same,"% visual injury, Ob",[2]; [18],0%
same,"% visual injury, Ob",[2]; [13],0%
same,"% visual injury, Ob",[2]; [19],0%
same,"% visual injury, Ob",[2]; [20],0%
same,"% visual injury, Ob",[2]; [21],0%
same,"% visual injury, Ob",[2]; safener alone 5 g/ha,0%
same,"% visual injury, Ob",[2]; safener alone 10 g/ha,0%
same,"% visual injury, Ob",[2]; safener alone 20 g/ha,0%
same,"% visual injury, Ob",[2]; safener alone 40 g/ha,0%
same,"% visual injury, Ob",[3]; [14],0%
same,"% visual injury, Ob",[3]; [15],0%
same,"% visual injury, Ob",[3]; [16],0%
same,"% visual injury, Ob",[3]; [17],0%
same,"% visual injury, Ob",[3]; [18],0%
same,% visual injury Δ,[3]; [13],0%
same,"% visual injury, Ob",[3]; [13],0%
same,"% visual injury, Ob",[3]; [19],0%
same,"% visual injury, Ob",[3]; [20],0%
same,"% visual injury, Ob",[3]; [21],0%
same,% visual injury Δ,[3]; safener alone 40 g/ha,0%
same,"% visual injury, Ob",[3]; safener alone 40 g/ha,0%
same,"% visual injury, Ob",[4]; [16],0%
same,"% visual injury, Ob",[4]; [18],0%
same,"% visual injury, Ob",[4]; [20],0%
same,"% visual injury, Ob",[4]; [21],0%
same,"% visual injury, Ob",[4]; safener alone 5 g/ha,0%
same,"% visual injury, Ob",[4]; safener alone 10 g/ha,0%
same,"% visual injury, Ob",[4]; safener alone 20 g/ha,0%
same,"% visual injury, Ob",[4]; safener alone 40 g/ha,0%
same,"% visual injury, Ob",[5]; [14],0%
same,"% visual injury, Ob",[5]; [15],0%
same,"% visual injury, Ob",[5]; [17],0%
same,"% visual injury, Ob",[5]; [22],0%
same,"% visual injury, Ob",[5]; [19],0%
same,"% visual injury, Ob",[5]; [23],0%
same,"% visual injury, Ob",[5]; [24],0%
same,"% visual injury, Ob",[5]; safener alone 5 g/ha,0%
same,"% visual injury, Ob",[5]; safener alone 10 g/ha,0%
same,"% visual injury, Ob",[5]; safener alone 20 g/ha,0%
same,"% visual injury, Ob",[5]; safener alone 40 g/ha,0%
same,"% visual injury, Ob",[8]; safener alone 5 g/ha,0%
same,"% visual injury, Ob",[8]; safener alone 10 g/ha,0%
same,"% visual injury, Ob",[8]; safener alone 20 g/ha,0%
same,"% visual injury, Ob",[8]; safener alone 40 g/ha,0%
same,"% visual injury, Ob","maize (ZEAMX); CQC-mexyl 20 g/ha alone, Table 17",0%
same,"% visual injury, Ob",maize (ZEAMX); [22],0%
same,"% visual injury, Ob","maize (ZEAMX); CQC-mexyl 40 g/ha alone, Table 17",0%
same,"% visual injury, Ob",maize (ZEAMX); [23],0%
same,"% visual injury, Ob","maize (ZEAMX); CQC-mexyl 80 g/ha alone, Table 17",0%
same,"% visual injury, Ob",maize (ZEAMX); [24],0%
same,"% visual injury, Ob","maize (ZEAMX); CQC-mexyl 120 g/ha alone, Table 17",0%
same,"% visual injury, Ob",[6]; CQC-mexyl 20 g/ha alone,0%
same,"% visual injury, Ob",[6]; CQC-mexyl 40 g/ha alone,0%
same,"% visual injury, Ob",[6]; CQC-mexyl 80 g/ha alone,0%
same,"% visual injury, Ob",[7]; CQC-mexyl 20 g/ha alone,0%
same,"% visual injury, Ob",[7]; CQC-mexyl 40 g/ha alone,0%
same,"% visual injury, Ob",[7]; CQC-mexyl 80 g/ha alone,0%
